These results are taken from ChEMBL document CHEMBL6087404, “Naphthoindole-2-carboxamides as a lipophilic chemotype of hetarene-anthraquinones potent against P-gp resistant tumor cells” (Eur J Med Chem, 2025).

A word on the IC50: it is the concentration at which inhibition is half-maximal.

The source made the active and inactive calls. The rule behind the calls is not given here.

Series [1] deals with K562/4. In words: Effect on cell cycle distribution in human K562/4 cells assessed as cells with fragmented DNA at sub-G1 phase at 1 uM incubated for 48 hrs by PI staining based flow cytometry (reference value: 4 %). It counts as functional. On the technique in general: A flow cytometer gives signals particle by particle.
In series [2] the test system is K562. In words: Induction of apoptosis in human K562 cells assessed as late apoptotic cells at 1 uM incubated for 48 hrs by Annexin V-FITC/PI staining based flow cytometry (reference value: 2.5 %). Format: functional.
For series [3], the system named is K562. As to the kind of experiment: Induction of apoptosis in human K562 cells assessed as necrotic cells at 1 uM incubated for 48 hrs by Annexin V-FITC/PI staining based flow cytometry (reference value: 10.8 %). Format: functional.
Series [4] in a line: Resistance index, ratio of IC50 for human K562/4 cells to IC50 for human K562 cells. It counts as functional.
Series [5] concerns K562/4. In words: Induction of apoptosis in human K562/4 cells assessed as early apoptotic cells at 1 uM incubated for 24 hrs by Annexin V-FITC/PI staining based flow cytometry (reference value: 1 %). Format: functional.
For series [6], the system named is K562/4. In words: Induction of apoptosis in human K562/4 cells assessed as late apoptotic cells at 1 uM incubated for 48 hrs by Annexin V-FITC/PI staining based flow cytometry (reference value: 2.5 %). It counts as functional.
Series [7] has as its system K562/4. As to the kind of experiment: Induction of apoptosis in human K562/4 cells assessed as viable cells at 1 uM incubated for 48 hrs by Annexin V-FITC/PI staining based flow cytometry (reference value: 10.8 %). Format: functional. To be noted: read-out: Activity.
Series [8] addresses T1, DNA topoisomerase 1 (Homo sapiens) (UniProt P11387).
T1 sequence (whole entry): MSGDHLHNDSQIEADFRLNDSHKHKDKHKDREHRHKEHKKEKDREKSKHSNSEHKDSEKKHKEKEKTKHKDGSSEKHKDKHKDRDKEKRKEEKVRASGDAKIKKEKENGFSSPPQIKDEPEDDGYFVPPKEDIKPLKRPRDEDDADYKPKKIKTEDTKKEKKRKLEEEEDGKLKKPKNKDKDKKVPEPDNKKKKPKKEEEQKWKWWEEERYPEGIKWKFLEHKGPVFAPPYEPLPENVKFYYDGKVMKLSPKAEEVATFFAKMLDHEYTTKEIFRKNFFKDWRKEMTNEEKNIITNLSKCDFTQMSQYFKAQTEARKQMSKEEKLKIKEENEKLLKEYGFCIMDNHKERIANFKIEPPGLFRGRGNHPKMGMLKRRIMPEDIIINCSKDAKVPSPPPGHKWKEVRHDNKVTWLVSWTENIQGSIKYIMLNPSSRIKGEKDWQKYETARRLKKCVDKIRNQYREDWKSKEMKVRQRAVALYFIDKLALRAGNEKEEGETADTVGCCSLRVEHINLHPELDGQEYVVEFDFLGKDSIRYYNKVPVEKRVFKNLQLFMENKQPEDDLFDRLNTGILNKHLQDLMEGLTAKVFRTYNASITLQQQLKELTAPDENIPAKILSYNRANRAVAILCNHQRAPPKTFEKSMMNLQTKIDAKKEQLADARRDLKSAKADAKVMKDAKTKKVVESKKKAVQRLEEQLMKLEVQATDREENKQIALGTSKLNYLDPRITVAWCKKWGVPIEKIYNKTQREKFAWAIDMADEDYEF
In words: Inhibition of Top1 (unknown origin)-mediated unwinding of supercoiled DNA at 5 uM incubated for 30 mins by electrophoretic analysis.

Series [9] has as its system K562/4. In words: Induction of apoptosis in human K562/4 cells assessed as viable cells at 1 uM incubated for 24 hrs by Annexin V-FITC/PI staining based flow cytometry (reference value: 10.8 %). It counts as functional. The following applies: read-out: Activity.
For series [10], the system named is K562. As to the kind of experiment: Induction of apoptosis in human K562 cells assessed as viable cells at 1 uM incubated for 48 hrs by Annexin V-FITC/PI staining based flow cytometry (reference value: 85.9 %). It counts as functional. The following applies: read-out: Activity.
Series [11] in a line: Drug uptake in human K562/4 cells assessed as fold increase at 2 uM incubated for 3 to 120 hrs by flow cytometry relative to LCTA-2640. It counts as ADME, cell-based. To be noted: k562/4, 2 µM, time 3-120 hrs.
The test system of series [12] is K562. In words: Induction of apoptosis in human K562 cells assessed as early apoptotic cells at 1 uM incubated for 24 hrs by Annexin V-FITC/PI staining based flow cytometry (reference value: 0.8 %). Format: functional.
The nature of series [13]: Drug uptake in lysosome of human HCT-116 cells at 3 uM incubated for 1 hr by LysoTracker Deep Red dye based confocal microscopy. Format: ADME, subcellular. To be noted: hct-116, 1 h.
The subject of another series is A549. In words: Antiproliferative activity against human A549 cells incubated for 72 hrs by MTT assay. Format: functional, cell-based. The following applies: A549, 72 h.
A short description of series [14]: Drug uptake in nuclear membrane of human HCT-116 cells at 3 uM incubated for 1 hr by confocal microscopy. It counts as ADME, cell membranes. To be noted: hct-116, 1 h.
Series [15] has as its system K562/4. In words: Antiproliferative activity against human K562/4 cells incubated for 72 hrs by MTT assay. It counts as functional, cell-based. To be noted: K562/4, 72 h. (Tetrazolium dyes change colour on reduction, which living cells bring about.)
Series [16] has as its system K562. In words: Effect on cell cycle distribution in human K562 cells assessed as cells with fragmented DNA at sub-G1 phase at 1 uM incubated for 48 hrs by PI staining based flow cytometry (reference value: 3 %). Format: functional.
Series [17] has as its system K562/4. In words: Effect on cell cycle distribution in human K562/4 cells assessed as cells with fragmented DNA at sub-G1 phase at 0.75 uM incubated for 24 hrs by PI staining based flow cytometry (reference value: 4 %). It counts as functional.

On to `CS(=O)(=O)O.N[C@H]1CCN(C(=O)c2cc3c(O)c4c(c(O)c3[nH]2)C(=O)c2ccccc2C4=O)C1`, for which the Activity in the series on K562/4 [1] is on record as 54%; with K562 [2] it was 43.8%; with K562 [3], 43.7%; with K562/4 [5] it was 0.6%; in the series on K562/4 [6], 17.5%; with K562 [12] it was 0.2%. Besides, the Activity with K562 [16] is listed as 84%; in the series on K562/4 [17], 8%. Besides, the “Ratio IC50” value in [4] was found to be 2.4. The results for the viability at 1 µM with K562/4 [7], with K562/4 [9] and with K562 [10] were 79%, 48.9% and 11.9%, respectively. Also, the inhibition result in series [8] was “Active”. Also, in series [11], the “fold change (FC)” value was “<= 2”. Also, the Drug uptake result was “Active” in series [13] and “Not_active” in series [14]. The half-inhibitory concentration (IC50) worked out at 7.7 µM in the series with A549 and 1.2 µM in the series with K562/4 [15].
